Measured values: ChEMBL document CHEMBL5608163, “Structure modification of anoplin for fighting resistant bacteria” (Eur J Med Chem, 2024)
Values after ≈ are worked out from the molar mass of the structure shown. Peptide text beside a SMILES is read from it. * marks the point of attachment. Heptadecanoyl = CCCCCCCCCCCCCCCCC(=O)*; Nonanoyl = CCCCCCCCC(=O)*

Columns and labels:
Escherichia coli [1] = assay: Antibacterial activity against multi-drug resistant Escherichia coli clinical isolate 850 assessed as reduction in bacterial growth measured after 18 to 24 hrs by CLSI protocol-based Mueller-Hinton broth dilution method; format: functional; conditions: time 18-24 hrs
Staphylococcus aureus [2] = assay: Antibacterial activity against Staphylococcus aureus ATCC 25923 assessed as reduction in bacterial growth measured after 18 to 24 hrs by CLSI protocol-based Mueller-Hinton broth dilution method; format: functional; conditions: time 18-24 hrs
Klebsiella pneumoniae = assay: Antibacterial activity against Klebsiella pneumoniae ATCC 700603 assessed as reduction in bacterial growth measured after 18 to 24 hrs by CLSI protocol-based Mueller-Hinton broth dilution method; format: functional; conditions: time 18-24 hrs
Bacillus subtilis [3] = assay: Antibacterial activity against Bacillus subtilis ATCC 23857 assessed as reduction in bacterial growth measured after 18 to 24 hrs by CLSI protocol-based Mueller-Hinton broth dilution method; format: functional; conditions: time 18-24 hrs
Acinetobacter baumannii = assay: Antibacterial activity against multi-drug resistant Acinetobacter baumannii clinical isolate 9840 assessed as reduction in bacterial growth measured after 18 to 24 hrs by CLSI protocol-based Mueller-Hinton broth dilution method; format: functional; conditions: time 18-24 hrs
Pseudomonas aeruginosa [4] = assay: Antibacterial activity against multi-drug resistant Pseudomonas aeruginosa clinical isolate 119 assessed as reduction in bacterial growth measured after 18 to 24 hrs by CLSI protocol-based Mueller-Hinton broth dilution method; format: functional; conditions: time 18-24 hrs
[5] = Hemolytic activity in human RBC; format: toxicity, cell-based, Erythrocyte; conditions: red blood cells
Escherichia coli [6] = assay: Antibacterial activity against Escherichia coli ATCC 25922 assessed as reduction in bacterial growth; format: functional
Staphylococcus aureus [7] = assay: Antibacterial activity against Staphylococcus aureus ATCC 29213 assessed as bacterial growth inhibition measured after 18 hrs by CLSI protocol based two-fold serial microdilution method; format: functional
Staphylococcus aureus [8] = assay: Antibacterial activity against Staphylococcus aureus ATCC 25923 assessed as reduction in bacterial growth incubated for 48 hrs by Mueller-Hinton broth based microdilution method; format: functional
Escherichia coli [9] = assay: Antibacterial activity against Escherichia coli ATCC 25922 assessed as reduction in bacterial growth incubated for 48 hrs by Mueller-Hinton broth based microdilution method; format: functional
[10] = tested on: Mycolicibacterium smegmatis; assay: Antibacterial activity against Mycobacterium smegmatis mc2 155 assessed as bacterial growth inhibition; format: functional
Bacillus subtilis [11] = assay: Antibacterial activity against Bacillus subtilis assessed as bacterial growth inhibition; format: functional
[12] = Hemolytic activity in human erythrocytes measured after 1 hrs by microplate reader analysis; format: toxicity, cell-based, Erythrocyte
Zymomonas mobilis = assay: Antibacterial activity against Zymomonas mobilis ATCC 10988 assessed as bacterial growth inhibition; format: functional
Escherichia coli [13] = assay: Antibacterial activity against Escherichia coli DH5a assessed as bacterial growth inhibition; format: functional
Pseudomonas aeruginosa [14] = assay: Antibacterial activity against Pseudomonas aeruginosa PAO1 assessed as bacterial growth inhibition; format: functional

## CC[C@H](C)[C@H](NC(=O)[C@H](CCCNC(=N)N)NC(=O)[C@@H](CCCCN)NC(=O)[C@H](CC(C)C)NC(=O)[C@H](CC(C)C)NC(=O)CNC(C)=O)C(=O)N[C@H](CCCCN)C(=O)N[C@H](C(=O)N[C@@H](CC(C)C)C(=O)N[C@@H](CC(C)C)C(=O)NC(Cc1cn(CCCC[C@H](NC(=O)[C@H](CC(C)C)NC(=O)[C@H](CC(C)C)NC(=O)[C@@H](NC(=O)[C@@H](CCCCN)NC(=O)[C@@H](NC(=O)[C@@H](CCCNC(=N)N)NC(=O)[C@H](CCCCN)NC(=O)[C@H](CC(C)C)NC(=O)[C@H](CC(C)C)NC(=O)CNC(C)=O)[C@@H](C)CC)[C@@H](C)O)C(N)=O)nn1)C(N)=O)[C@@H](C)O (some centres undefined)
Escherichia coli [1]
  MIC: 16 µM (≈ 42.2 µg/mL)
Staphylococcus aureus [2]
  MIC: 64 µM (≈ 169 µg/mL)
Klebsiella pneumoniae
  MIC: 64 µM (≈ 169 µg/mL)
Bacillus subtilis [3]
  MIC: 64 µM (≈ 169 µg/mL)
Acinetobacter baumannii
  MIC: 4 µM (≈ 10.6 µg/mL)
Pseudomonas aeruginosa [4]
  MIC: 32 µM (≈ 84.5 µg/mL)

## CC[C@H](C)[C@H](NC(=O)[C@H](Cc1ccccc1)NC(=O)[C@H](CCCCN)NC(=O)[C@H](CC(C)C)NC(=O)[C@H](CC(C)C)NC(=O)CN)C(=O)N[C@@H](CCCCN)C(=O)N[C@H](C(=O)N[C@@H](CC(C)C)C(=O)N[C@@H](CC(C)C)C(N)=O)[C@@H](C)O (H-GLLKFIKTLL-NH2)
[5]
  HC50: 67.3 µM
Escherichia coli [6]
  MIC: 1.8 µM (≈ 2.06 µg/mL)
Staphylococcus aureus [7]
  MIC: 1.8 µM (≈ 2.06 µg/mL)

## CC[C@H](C)[C@H](NC(=O)[C@H](CCCNC(=N)N)NC(=O)[C@H](CCCCN)NC(=O)[C@@H](CC(C)C)NC(=O)[C@H](CC(C)C)NC(=O)CNC(C)=O)C(=O)N[C@@H](CCCCN)C(=O)N[C@H](C(=O)N[C@H](CC(C)C)C(=O)N[C@H](CC(C)C)C(=O)NC(Cc1cn(CCCC[C@H](NC(C)=O)C(=O)NCC(=O)N[C@@H](CC(C)C)C(=O)N[C@@H](CC(C)C)C(=O)N[C@H](CCCCN)C(=O)N[C@@H](CCCNC(=N)N)C(=O)N[C@H](C(=O)N[C@H](CCCCN)C(=O)N[C@H](C(=O)N[C@@H](CC(C)C)C(=O)N[C@@H](CC(C)C)C(N)=O)[C@@H](C)O)[C@@H](C)CC)nn1)C(N)=O)[C@@H](C)O (some centres undefined)
Escherichia coli [1]
  MIC: 4 µM (≈ 10.6 µg/mL)
Staphylococcus aureus [2]
  MIC: 32 µM (≈ 84.5 µg/mL)
Klebsiella pneumoniae
  MIC: 8 µM (≈ 21.1 µg/mL)
Bacillus subtilis [3]
  MIC: 2 µM (≈ 5.28 µg/mL)
Acinetobacter baumannii
  MIC: 2 µM (≈ 5.28 µg/mL)
Pseudomonas aeruginosa [4]
  MIC: 16 µM (≈ 42.2 µg/mL)

## CCCCCCCCCCCCCCCCC(=O)NCC(=O)N[C@@H](CC(C)C)C(=O)N[C@@H](CC(C)C)C(=O)N[C@@H](CCCCN)C(=O)N[C@@H](CCCNC(=N)N)C(=O)N[C@H](C(=O)N[C@@H](CCCCN)C(=O)N[C@H](C(=O)N[C@@H](CC(C)C)C(=O)N[C@@H](CC(C)C)C(N)=O)[C@@H](C)O)[C@@H](C)CC (Heptadecanoyl-GLLKRIKTLL-NH2)
Staphylococcus aureus [8]
  MIC: 4.67 µM (≈ 6.57 µg/mL)
Escherichia coli [9]
  MIC: 2.34 µM (≈ 3.29 µg/mL)

## CC[C@H](C)[C@H](NC(=O)[C@H](CC(C)C)NC(=O)[C@H](CCCCN)NC(=O)[C@H](CC(C)C)NC(=O)[C@H](CC(C)C)NC(=O)CN)C(=O)N[C@@H](CCCCN)C(=O)N[C@H](C(=O)N[C@@H](CC(C)C)C(=O)N[C@@H](CC(C)C)C(N)=O)[C@@H](C)O (H-GLLKLIKTLL-NH2)
[5]
  HC50: 11.7 µM
Escherichia coli [6]
  MIC: 1.8 µM (≈ 2 µg/mL)
Staphylococcus aureus [7]
  MIC: 1.8 µM (≈ 2 µg/mL)

## CC[C@H](C)[C@H](NC(=O)[C@H](CCCNC(=N)N)NC(=O)[C@H](CCCCN)NC(=O)[C@@H](CC(C)C)NC(=O)[C@H](CC(C)C)NC(=O)CNC(C)=O)C(=O)N[C@@H](CCCCN)C(=O)N[C@H](C(=O)N[C@H](CC(C)C)C(=O)N[C@H](CC(C)C)C(=O)NC(Cc1cn(CCCC[C@H](NC(=O)[C@H](CC(C)C)NC(=O)[C@H](CC(C)C)NC(=O)[C@@H](NC(=O)[C@@H](CCCCN)NC(=O)[C@@H](NC(=O)[C@H](CCCNC(=N)N)NC(=O)[C@@H](CCCCN)NC(=O)[C@H](CC(C)C)NC(=O)[C@H](CC(C)C)NC(=O)CNC(C)=O)[C@@H](C)CC)[C@@H](C)O)C(N)=O)nn1)C(N)=O)[C@@H](C)O (some centres undefined)
Escherichia coli [1]
  MIC: 4 µM (≈ 10.6 µg/mL)
Staphylococcus aureus [2]
  MIC: 32 µM (≈ 84.5 µg/mL)
Klebsiella pneumoniae
  MIC: 16 µM (≈ 42.2 µg/mL)
Bacillus subtilis [3]
  MIC: 2 µM (≈ 5.28 µg/mL)
Acinetobacter baumannii
  MIC: 2 µM (≈ 5.28 µg/mL)
Pseudomonas aeruginosa [4]
  MIC: 16 µM (≈ 42.2 µg/mL)

## CCCCCCCCC(=O)NCC(=O)N[C@@H](CC(C)C)C(=O)N[C@@H](CCCCN)C(=O)N[C@@H](CCCCN)C(=O)N[C@H](C(=O)N[C@H](C(=O)N[C@@H](CCCCN)C(=O)N[C@@H](CCCCN)C(=O)N[C@@H](CC(C)C)C(=O)N[C@@H](CC(C)C)C(N)=O)[C@@H](C)CC)[C@@H](C)CC (Nonanoyl-GLKKIIKKLL-NH2)
[10]
  MIC: 2.3 µM (≈ 2.97 µg/mL)
Bacillus subtilis [11]
  MIC: 3.83 µM (≈ 4.95 µg/mL)
[12]
  HC50 at 1 h: 61.9 µM
Zymomonas mobilis
  MIC: 11.5 µM (≈ 14.8 µg/mL)
Escherichia coli [13]
  MIC: 76.6 µM (≈ 99 µg/mL)
Pseudomonas aeruginosa [14]
  MIC: 11.5 µM (≈ 14.8 µg/mL)

## CC[C@H](C)[C@H](NC(=O)[C@H](CC(N)=O)NC(=O)[C@H](CCCCN)NC(=O)[C@H](CC(C)C)NC(=O)[C@H](CC(C)C)NC(=O)CN)C(=O)N[C@@H](CCCCN)C(=O)N[C@H](C(=O)N[C@@H](CC(C)C)C(=O)N[C@@H](CC(C)C)C(N)=O)[C@@H](C)O (H-GLLKNIKTLL-NH2)
Escherichia coli [6]
  MIC: 1.7 µM (≈ 1.89 µg/mL)
Staphylococcus aureus [7]
  MIC: 1.7 µM (≈ 1.89 µg/mL)
